According to publication PMC5933747 (PLoS ONE, 2018):
Several values for one entry are separate records, joined by “and”; a condition that tells them apart may be missing. Identical values can stand only once.

Experiments:
[1] = biological target: T1, human NaV1.5 (Homo sapiens, UniProt Q14524); experiment: PatchXpress (PX) automated electrophysiology, human NaV1.5; format: cell-based; details: for IC50: PX platform, at least ten cells, two to three data points per concentration
[2] = tested on: mechanically-induced C-fiber action potential firing; set-up: species or system mouse
Procedure: Male C57BL/6 mice (Charles River Laboratories, San Diego, CA) between 2–3 months old (136 total mice used in study) were housed under standard temperature conditions (22–24°C) and illumination (12-hour light/dark cycle with lights on at 6:30 AM) with ad libitum access to fresh water and food. Mice were euthanized by CO2 followed by cervical dislocation. Experimental procedures for mouse skin-saphenous nerve studies were conducted as previously described with the use of 0.1% BSA (Acros) in the bath solution to decrease non-specific loss of peptide to chamber components [32]. Briefly, the saphenous nerve and skin from the left medial dorsum of the hind paw were dissected and mounted in a custom-made organ bath chamber. The proximal saphenous nerve end was passed through a hole into a separate recording chamber, desheathed and teased into fine fibers for extracellular recording. Mechanical responses were evoked by square force waves using a mechanical stimulator before and following peptide application to a small area of the corium (dermis) side of the skin in a custom-made stainless steel ring. Recording and analysis of C-fiber-mediated action potentials were performed in a blinded manner with respect to peptide treatment. […]

[3] = tested on: capsaicin-induced action potential firing in rat DRG neurons; experiment: Multi-electrode array (MEA), capsaicin-induced action potential firing in rat DRG neurons; format: cell-based; details: cultured rat DRG neurons, 25 nM capsaicin (EC80) co-applied, 37°C, six replicate wells, read-out: IC50 for block of capsaicin-induced action potential firing
Procedure: Action potentials of cultured postnatal day 2 rat DRG neurons (Lonza, Walkersville, MD) were detected using the Maestro multi-well plate-based MEA system (Axion Biosystems, Atlanta, GA). A 48-well MEA plate containing 16 electrodes/well was pre-coated with 10μL 0.1% PEI (Sigma-Aldrich, St. Louis, MO) in borate buffer (50mM boric acid (Fisher Scientific, Waltham, MA), 12mM sodium tetraborate (Sigma-Aldrich), pH 8.4). The plate was incubated at 37°C for 2h, washed 3-times with 200μL sterile ddH2O and then air dried. Next, 10μL of 20μg/mL laminin (Sigma) in Primary Neural Basal Medium (PNBM) (Lonza) was spotted over the PEI-treated electrode surface and incubated for 2h at 37°C. Laminin was removed and immediately replaced with 10μL/well of 7x10^6 cells/mL rat DRGs in PNBM. […] Baseline spontaneous firing was recorded for approximately 1 min. Twenty-five μL of PNBM, 325nM capsaicin (MP Biomedicals, 25nM final, EC80) in PNBM, or 325nM capsaicin plus test compound was then added, and action potentials were continuously recorded for another 2 min with six replicate wells used per condition. MEA data were analyzed using Axion Integrated Studio AxIS2.1 (Axion Biosystems) and GraphPad Prism version 7.02 for Windows (GraphPad Software, La Jolla, CA). […]

[4] = biological target: T2, human NaV1.4 (Homo sapiens, UniProt P35499); experiment: PatchXpress (PX) automated electrophysiology, human NaV1.4; format: cell-based; details: for IC50: PX platform, at least ten cells, two to three data points per concentration
T2 sequence (P35499 whole entry): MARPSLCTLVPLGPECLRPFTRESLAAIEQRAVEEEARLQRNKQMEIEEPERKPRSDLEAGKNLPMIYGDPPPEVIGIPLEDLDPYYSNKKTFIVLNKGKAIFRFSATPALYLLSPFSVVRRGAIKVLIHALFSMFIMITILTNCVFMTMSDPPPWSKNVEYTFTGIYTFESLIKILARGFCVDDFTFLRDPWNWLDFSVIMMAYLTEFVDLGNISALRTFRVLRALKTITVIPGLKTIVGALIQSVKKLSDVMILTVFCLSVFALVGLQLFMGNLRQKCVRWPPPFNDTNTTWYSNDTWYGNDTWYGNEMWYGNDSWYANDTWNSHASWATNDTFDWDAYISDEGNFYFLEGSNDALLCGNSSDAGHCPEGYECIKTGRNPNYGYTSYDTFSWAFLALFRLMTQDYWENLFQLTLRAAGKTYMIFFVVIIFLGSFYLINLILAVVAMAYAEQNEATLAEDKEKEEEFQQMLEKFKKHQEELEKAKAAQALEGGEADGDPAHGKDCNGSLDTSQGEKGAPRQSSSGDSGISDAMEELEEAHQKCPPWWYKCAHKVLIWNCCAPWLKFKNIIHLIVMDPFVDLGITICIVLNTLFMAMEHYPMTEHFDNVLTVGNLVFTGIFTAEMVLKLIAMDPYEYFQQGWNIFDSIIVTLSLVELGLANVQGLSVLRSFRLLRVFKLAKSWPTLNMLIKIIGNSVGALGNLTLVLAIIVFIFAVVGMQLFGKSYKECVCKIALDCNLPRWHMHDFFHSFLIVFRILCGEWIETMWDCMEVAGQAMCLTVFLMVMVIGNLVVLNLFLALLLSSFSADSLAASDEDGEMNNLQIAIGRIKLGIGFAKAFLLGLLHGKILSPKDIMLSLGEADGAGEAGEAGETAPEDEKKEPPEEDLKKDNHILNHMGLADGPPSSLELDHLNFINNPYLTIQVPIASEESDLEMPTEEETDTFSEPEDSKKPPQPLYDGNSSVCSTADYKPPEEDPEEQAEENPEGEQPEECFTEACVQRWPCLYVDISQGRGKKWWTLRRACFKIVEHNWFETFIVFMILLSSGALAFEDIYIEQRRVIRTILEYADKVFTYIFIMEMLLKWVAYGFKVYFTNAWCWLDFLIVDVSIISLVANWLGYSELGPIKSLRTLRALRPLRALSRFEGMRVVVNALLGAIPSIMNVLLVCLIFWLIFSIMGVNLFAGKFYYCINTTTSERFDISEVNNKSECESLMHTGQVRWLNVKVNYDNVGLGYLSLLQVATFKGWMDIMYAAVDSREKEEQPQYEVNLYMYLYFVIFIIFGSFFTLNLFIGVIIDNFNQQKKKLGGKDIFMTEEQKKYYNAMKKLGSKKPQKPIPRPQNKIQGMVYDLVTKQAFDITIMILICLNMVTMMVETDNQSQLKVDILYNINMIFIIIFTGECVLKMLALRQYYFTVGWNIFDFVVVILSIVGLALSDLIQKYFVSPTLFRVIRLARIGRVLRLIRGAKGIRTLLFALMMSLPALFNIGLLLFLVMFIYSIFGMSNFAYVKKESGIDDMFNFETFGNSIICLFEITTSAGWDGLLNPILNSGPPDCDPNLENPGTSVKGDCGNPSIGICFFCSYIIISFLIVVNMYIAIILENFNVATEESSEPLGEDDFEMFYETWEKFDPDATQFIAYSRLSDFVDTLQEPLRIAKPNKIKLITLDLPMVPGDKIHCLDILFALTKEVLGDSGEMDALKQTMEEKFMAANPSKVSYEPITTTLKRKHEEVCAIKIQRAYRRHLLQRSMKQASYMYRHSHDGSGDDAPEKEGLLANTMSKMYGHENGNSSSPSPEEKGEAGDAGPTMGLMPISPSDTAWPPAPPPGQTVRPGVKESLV
Procedure: (§1) Human NaV (hNaV) stably transfected cell lines in HEK293 or CHO backgrounds and cell culture methods were as previously described. hNaV1.1-hNaV1.7 cells were obtained from Eurofins Pharma Discovery Services (St. Charles, MO), and hNaV1.8 cells were generated in house. Whole cell patch clamp, PatchXpress, and IWQ electrophysiology voltage protocols as well as DRG neuron isolation were carried out as previously described. NaV1.7-NaV1.5 chimeras were generated and evaluated in BacMam transduced U2-OS cells on the IWQ platform as previously described.

[5] = biological target: wild-type NaV1.5 (Homo sapiens, UniProt Q14524); experiment: IWQ chimera mapping, wild-type NaV1.5; format: cell-based; set-up: expressed in transfected cells; host or cells: BacMam transduced U2-OS cells; details: IWQ platform
Procedure: as §1
(§2) Given the lack of robust bioactivity of AM-8145 on NaV1.5, we evaluated AM-8145 functional block on a battery of human NaV1.7-NaV1.5 chimeric channels, in which individual voltage sensor domains (transmembrane domains S1-S4 of domains I-IV) or the entire pore domain (transmembrane domains S5-S6 of domains I-IV) of NaV1.7 were inserted into the NaV1.5 backbone.
(§3) Fig 4 AM-8145 maps to the second voltage sensor domain on hNaV1.7. Potency of AM-8145 inhibition of wild-type NaV1.7, wild-type NaV1.5, or chimeric NaV1.7/NaV1.5 channels (red illustrates NaV1.7 sequence and gray illustrates NaV1.5 sequence) on the IWQ platform (mean ± SEM). D = “Domain”; S = “Sensor” corresponding to transmembrane segments 1–4; P = “Pore” corresponding to transmembrane segments 5–6. […]

[6] = biological target: T3, native TTX-R NaV1.8 channels in mouse DRG neurons (Mus musculus, UniProt Q6QIY3); experiment: Manual whole cell patch clamp, native TTX-R NaV channels in mouse DRG neurons; format: cell-based; details: 20% channel inactivation
T3 construct: endogenous in cells; host or cells: dissociated mouse DRG neurons
Procedure: as §1
(§4) Fig 5 Selectivity of AM-8145 for human NaV channels in heterologous cells and native NaV currents in mDRG neurons. A. Concentration response curves for TTX-S channels including NaV1.1-NaV1.4, NaV1.6-NaV1.7 and mDRG TTX-S. IC50 values with fold-selectivity compared to NaV1.7 are listed in parenthesis. AM-8145 was 30- to 120-fold selective for NaV1.7 over NaV1.1-NaV1.4 and NaV1.6. B. Concentration response curves for TTX-R channels including NaV1.5, NaV1.8 and mDRG TTX-R. AM-8145 was over 1,700-fold selective for NaV1.7 over NaV1.5, NaV1.8 and mDRG TTX-R. Curves in A and B were derived from whole cell patch clamp experiments. Data are presented as mean ± SEM with n = 2–4 cells per data point. C. Representative current traces for TTX-S channels before (black) and after (red) 10 nM AM-8145 addition. […]

[7] = tested on: NaV1.7/NaV1.5 chimera DIS (first NaV1.7 voltage-sensor domain in NaV1.5 backbone); experiment: IWQ chimera mapping, chimera DIS; format: cell-based, human; details: IWQ platform; BacMam transduced U2-OS cells
Procedure: as §1, §2, §3

[8] = biological target: T4, human NaV1.8 (Homo sapiens, UniProt Q9Y5Y9); experiment: Manual whole cell patch clamp, human NaV1.8; format: cell-based; details: 20% channel inactivation
T4 construct: expressed in transfected cells
Procedure: as §1, §4

[9] = biological target: T5, wild-type NaV1.7 (Homo sapiens, UniProt Q15858); experiment: IWQ chimera mapping, wild-type NaV1.7; format: cell-based; details: IWQ platform; mean ± SEM
T5 construct: expressed in transfected cells; host or cells: BacMam transduced U2-OS cells
Procedure: as §1, §2, §3

[10] = biological target: T2, human NaV1.4; experiment: Manual whole cell patch clamp, human NaV1.4; format: cell-based; details: 20% channel inactivation, n = 2–4 cells per data point
Procedure: as §1, §4

[11] = biological target: T1, human NaV1.5; experiment: in vitro; format: cell-based
Procedure: as §1, §4

[12] = biological target: human NaV1.2 (Homo sapiens, UniProt Q99250); experiment: Manual whole cell patch clamp, human NaV1.2; format: cell-based; details: 20% channel inactivation, n = 2–4 cells per data point
Procedure: as §1, §4

[13] = biological target: human NaV1.7 (Homo sapiens, UniProt Q15858); experiment: Manual whole cell patch clamp, human NaV1.7; format: cell-based
[14] = tested on: NaV1.7/NaV1.5 chimera DIVS (fourth NaV1.7 voltage-sensor domain in NaV1.5 backbone); experiment: IWQ chimera mapping, chimera DIVS; format: cell-based, human; details: IWQ platform; BacMam transduced U2-OS cells
Procedure: as §1, §2, §3

[15] = tested on: NaV1.7/NaV1.5 chimera DIIIS (third NaV1.7 voltage-sensor domain in NaV1.5 backbone); experiment: IWQ chimera mapping, chimera DIIIS; format: cell-based, human; details: IWQ platform; BacMam transduced U2-OS cells
Procedure: as §1, §2, §3

[16] = tested on: mechanically-induced C-fiber action potential firing; details: mouse skin-nerve preparation; cited from earlier work
[17] = tested on: TTX-R sodium channels in rat DRG neurons; details: cited from earlier work
[18] = tested on: TTX-S sodium channels in rat DRG neurons; details: cited from earlier work

T1 sequence (Q14524 whole entry): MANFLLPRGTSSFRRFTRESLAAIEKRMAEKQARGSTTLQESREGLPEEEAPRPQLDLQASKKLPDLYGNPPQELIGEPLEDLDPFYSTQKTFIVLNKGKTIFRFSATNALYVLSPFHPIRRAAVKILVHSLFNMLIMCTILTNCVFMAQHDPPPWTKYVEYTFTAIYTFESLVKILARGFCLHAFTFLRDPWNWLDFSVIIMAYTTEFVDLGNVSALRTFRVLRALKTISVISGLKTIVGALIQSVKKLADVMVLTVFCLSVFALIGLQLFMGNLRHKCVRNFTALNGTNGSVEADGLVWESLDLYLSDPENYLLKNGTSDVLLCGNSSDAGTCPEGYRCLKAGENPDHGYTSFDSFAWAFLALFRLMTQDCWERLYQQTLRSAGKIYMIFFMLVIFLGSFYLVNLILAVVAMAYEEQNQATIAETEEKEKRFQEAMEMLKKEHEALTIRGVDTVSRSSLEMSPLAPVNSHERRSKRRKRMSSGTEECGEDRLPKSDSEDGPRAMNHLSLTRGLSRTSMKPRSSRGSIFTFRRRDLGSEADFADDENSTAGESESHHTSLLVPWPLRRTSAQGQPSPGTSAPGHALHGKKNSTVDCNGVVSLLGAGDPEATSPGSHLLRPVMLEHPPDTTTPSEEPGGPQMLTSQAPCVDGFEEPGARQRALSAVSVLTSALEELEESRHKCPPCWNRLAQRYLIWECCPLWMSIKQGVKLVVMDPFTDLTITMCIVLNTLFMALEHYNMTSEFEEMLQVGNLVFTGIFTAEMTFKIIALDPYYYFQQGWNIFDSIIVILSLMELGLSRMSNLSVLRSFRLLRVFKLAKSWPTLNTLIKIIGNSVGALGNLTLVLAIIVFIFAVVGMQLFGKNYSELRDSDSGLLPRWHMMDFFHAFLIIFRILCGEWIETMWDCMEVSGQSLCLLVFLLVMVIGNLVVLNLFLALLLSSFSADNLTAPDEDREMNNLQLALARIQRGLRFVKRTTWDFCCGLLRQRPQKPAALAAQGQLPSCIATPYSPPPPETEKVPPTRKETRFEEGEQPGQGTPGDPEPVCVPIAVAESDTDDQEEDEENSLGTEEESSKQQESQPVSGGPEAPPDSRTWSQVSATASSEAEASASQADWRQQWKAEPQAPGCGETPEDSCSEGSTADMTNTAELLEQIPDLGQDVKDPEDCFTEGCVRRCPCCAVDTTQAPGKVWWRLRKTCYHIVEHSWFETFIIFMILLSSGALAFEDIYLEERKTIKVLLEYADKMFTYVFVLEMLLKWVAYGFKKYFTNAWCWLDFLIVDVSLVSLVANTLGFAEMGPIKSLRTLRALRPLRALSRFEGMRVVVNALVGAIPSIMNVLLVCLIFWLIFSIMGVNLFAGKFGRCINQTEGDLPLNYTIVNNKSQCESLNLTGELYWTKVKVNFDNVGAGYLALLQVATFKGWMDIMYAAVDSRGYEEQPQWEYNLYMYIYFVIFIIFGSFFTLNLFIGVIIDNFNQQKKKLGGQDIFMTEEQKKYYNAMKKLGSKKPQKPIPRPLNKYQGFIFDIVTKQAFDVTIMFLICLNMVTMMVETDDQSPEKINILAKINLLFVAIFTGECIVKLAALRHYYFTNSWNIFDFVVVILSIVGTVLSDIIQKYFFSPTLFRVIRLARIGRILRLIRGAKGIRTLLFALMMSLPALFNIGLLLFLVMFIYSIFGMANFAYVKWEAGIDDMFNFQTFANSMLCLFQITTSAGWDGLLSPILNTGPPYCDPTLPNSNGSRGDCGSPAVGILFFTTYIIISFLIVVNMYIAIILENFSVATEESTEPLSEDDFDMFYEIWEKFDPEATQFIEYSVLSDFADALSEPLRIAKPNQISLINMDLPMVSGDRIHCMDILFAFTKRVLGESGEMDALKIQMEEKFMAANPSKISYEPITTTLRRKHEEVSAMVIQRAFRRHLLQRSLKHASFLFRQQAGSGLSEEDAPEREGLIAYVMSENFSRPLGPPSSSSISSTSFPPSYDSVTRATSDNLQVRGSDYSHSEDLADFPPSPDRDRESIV

C#CC[C@@H]1NC(=O)[C@@H]2CSSC[C@H](NC(=O)[C@H](Cc3ccc(O)cc3)NC(=O)[C@@H](N)CC#N)C(=O)N[C@@H](CCC(N)=O)C(=O)N[C@@H](CCCCN)C(=O)N[C@@H](Cc3c[nH]c4ccccc34)C(=O)N[C@@H](CCCC)C(=O)N[C@@H](Cc3c[nH]c4ccccc34)C(=O)N[C@@H]([C@@H](C)O)C(=O)N[C@H]3CSSC[C@H](NC(=O)[C@H](CCCNC(=N)N)NC(=O)[C@H](CC(C)C)NC(=O)CNC1=O)C(=O)N[C@@H](CCCCN)C(=O)N[C@@H](CC(C)C)C(=O)N[C@@H](Cc1c[nH]c4ccccc14)C(=O)N[C@H](C(=O)N[C@@H](CCCNC(=N)N)C(=O)N[C@@H](CCCCN)C(=O)N[C@@H](CCC(=O)O)C(=O)N[C@H](C(N)=O)[C@@H](C)CC)CSSC[C@H](NC(=O)[C@H](C)NC(=O)[C@H](CCCNC(=N)N)NC(=O)[C@H](CCCCN)NC(=O)[C@H](CO)NC(=O)[C@H](CC(=O)O)NC3=O)C(=O)N2 [AM-0422, CyA-[Nle6;Pra17;Glu28]JzTx-V(1–29)]
IC50 ([1]; human): 966 nM
IC50 [2]: 880 nM
IC50 [3]: 21.1 ± 5.7 nM
IC50 [4]: 103 nM

C#CC[C@H](N)C(=O)N[C@@H](Cc1ccc(O)cc1)C(=O)N[C@H]1CSSC[C@@H]2NC(=O)[C@@H]3CSSC[C@@H](C(=O)N[C@@H](CCCNC(=N)N)C(=O)N[C@@H](CCCCN)C(=O)N[C@@H](CCC(=O)O)C(=O)N[C@H](C(N)=O)[C@@H](C)CC)NC(=O)[C@H](Cc4c[nH]c5ccccc45)NC(=O)[C@H](CC(C)C)NC(=O)[C@H](CCCCN)NC(=O)[C@H](CSSC[C@H](NC(=O)[C@H]([C@@H](C)O)NC(=O)[C@H](Cc4c[nH]c5ccccc45)NC(=O)[C@H](CCCC)NC(=O)[C@H](Cc4c[nH]c5ccccc45)NC(=O)[C@H](CCCCN)NC(=O)[C@H](CCC(N)=O)NC1=O)C(=O)N[C@@H](CC(=O)O)C(=O)N[C@@H](CO)C(=O)N[C@@H](CCCCN)C(=O)N[C@@H](CCCNC(=N)N)C(=O)N[C@@H](C)C(=O)N3)NC(=O)[C@H](CCCNC(=N)N)NC(=O)[C@H](CC(C)C)NC(=O)CNC(=O)[C@H](CCC(=O)O)NC2=O [AM-8145, Pra-[Nle6;Glu28]JzTx-V(1–29)]
IC50 [5]: > 3000 nM
IC50 [6]: > 1000 nM
IC50 [7]: > 3000 nM
IC50 [1]: 3000 nM
selectivity ratio ([1]; human, PX platform IC50 ratio, read-out: selectivity for NaV1.7 over NaV1.5): 6000
IC50 [8]: > 1000 nM
IC50 [9]: 50 ± 10 nM
IC50 [10]: 71 nM
selectivity ratio ([11]; manual patch clamp IC50 ratio, read-out: fold-selectivity compared to NaV1.7, NaV1.5): > 1700
IC50 ([11]; manual patch clamp, 20% channel inactivation): > 1000 nM
IC50 [12]: 43.5 nM
selectivity over human TTX-R channels (NaV1.5, NaV1.8) and native TTX-R channels in mouse DRG neurons ([13]; manual patch clamp IC50 ratios): over 1,000 fold
selectivity over other human TTX-S Nav channels (NaV1.1, NaV1.2, NaV1.3, NaV1.4, NaV1.6) ([13]; manual patch clamp IC50 ratios): 30- to 120 fold
IC50 ([13]; manual patch clamp, voltage protocol with 20% of channels inactivated): 0.58 nM
IC50 [14]: > 3000 nM
IC50 [15]: > 3000 nM
selectivity for NaV1.7 over NaV1.4 ([4]; PX platform IC50 ratio): 300 fold
IC50 [4]: 145 nM

COc1cc(-c2cc(F)cc(Cl)c2)c(F)cc1-n1c(=O)ccc2cc(S(=O)(=O)Nc3ccon3)ccc21 [AMG8379]
C-fiber inhibition [16]: 60%

JzTx-V(1–29) [reference compound]
IC50 [17]: 30 nM
IC50 [18]: 28 nM
hNaV1.7 current blocked [13]: 83 ± 2% and 83 ± 6%
reversal of NaV1.7 block by high frequency strong depolarizations to +100 mV [13]: partially reversed
